{"source": "patent US20080194585A1", "about": "“Fungicidal Pyrazine Derivatives” (priority 2005, published 2008)", "key": {"fusarium graminearium": {"tested_on": "fusarium graminearium", "assay": "Test I: wheat head scab, preventive spray on wheat seedlings", "details": "100 = 100% disease control, 0 = no control", "quoted_text": "(the causal agent of wheat head scab) and incubated in a saturated atmosphere at 20° C. for 72 h, and then moved to a growth chamber at 22° C. for 5 days, after which disease ratings were made."}, "Phytophthora infestans": {"tested_on": "Phytophthora infestans", "assay": "whole plant or invertebrate", "type": "in vivo", "details": "100 = 100% disease control, 0 = no control"}, "Septoria tritici": {"tested_on": "Septoria tritici", "assay": "Test J: wheat leaf blotch, preventive spray on wheat seedlings", "type": "in vivo", "details": "40 ppm (marked *); 100 = 100% disease control, 0 = no control", "description": "A dash (-) indicates no test results."}, "[1]": {"tested_on": "Erysiphe graminis f. sp. tritici", "assay": "Test L: wheat powdery mildew, preventive spray on wheat seedlings", "details": "100 = 100% disease control, 0 = no control"}, "[2]": {"tested_on": "Colletotrichum orbiculare", "assay": "Test B: cucumber Colletotrichum anthracnose, preventive spray on cucumber seedlings", "details": "100 = 100% disease control, 0 = no control"}, "Pythium aphanidermatum": {"tested_on": "Pythium aphanidermatum", "assay": "Test A: bluegrass pythium blight, preventive spray on bluegrass seedlings", "details": "100 = 100% disease control, 0 = no control"}, "Septoria nodorum": {"tested_on": "Septoria nodorum", "assay": "Test H: wheat glum blotch, preventive spray on wheat seedlings", "details": "100 = 100% disease control, 0 = no control", "quoted_text": "(the causal agent of wheat glum blotch) and incubated in a saturated atmosphere at 20° C. for 48 h, and then moved to a growth chamber at 22° C. for 5 days, after which disease ratings were made."}, "Plasmopara viticola": {"tested_on": "Plasmopara viticola", "assay": "Test D: grape downy mildew, spray after inoculation of grape seedlings", "type": "in vivo", "details": "100 = 100% disease control, 0 = no control", "description": "Upon removal, disease ratings were made. […] A dash (-) indicates no test results."}, "Botrytis cinerea": {"tested_on": "Botrytis cinerea", "assay": "Test E: tomato botrytis, preventive spray on tomato seedlings", "details": "100 = 100% disease control, 0 = no control"}, "Rhizoctonia oryzae": {"tested_on": "Rhizoctonia oryzae", "assay": "Test G: turf brown patch, preventive spray on creeping bent grass seedlings", "details": "100 = 100% disease control, 0 = no control", "quoted_text": "(the causal agent of turf brown patch) and incubated in a saturated atmosphere at 27° C. for 24 h, and then moved to a growth chamber at 27° C. for 5 days, after which disease ratings were made."}, "Sclerotinia sclerotiorum": {"tested_on": "Sclerotinia sclerotiorum", "assay": "Test C: cucumber white mold, preventive spray on cucumber seedlings", "details": "100 = 100% disease control, 0 = no control"}, "[3]": {"tested_on": "Puccinia recondita f. sp. tritici", "assay": "Test K: wheat leaf rust, preventive spray on wheat seedlings", "details": "100 = 100% disease control, 0 = no control"}}, "note": "Marks after values point to notes of the source that are not given here."}
{"compound": "Cc1ccn(-c2nc(Cl)c(-c3c(F)cccc3F)n(Cc3ccccc3F)c2=O)n1", "note": "[compound 280]", "values": [{"measurement": "Test I disease control rating", "setting": "fusarium graminearium; 40 ppm (marked *)", "value": "0* %"}, {"measurement": "Test F disease control rating", "setting": "Phytophthora infestans; 40 ppm (marked *)", "value": "0* %"}, {"measurement": "Test J disease control rating", "setting": "Septoria tritici", "value": "100* %"}, {"measurement": "Test L disease control rating", "setting": "[1]; 40 ppm (marked *)", "value": "69* %"}, {"measurement": "Test B disease control rating", "setting": "[2]; 40 ppm (marked *)", "value": "57* %"}, {"measurement": "Test A disease control rating", "setting": "Pythium aphanidermatum; 40 ppm (marked *)", "value": "0* %"}, {"measurement": "Test H disease control rating", "setting": "Septoria nodorum; 40 ppm (marked *)", "value": "96* %"}, {"measurement": "Test D disease control rating", "setting": "Plasmopara viticola; 40 ppm (marked *)", "value": "0* %"}, {"measurement": "Test E disease control rating", "setting": "Botrytis cinerea; 40 ppm (marked *)", "value": "99* %"}, {"measurement": "Test G disease control rating", "setting": "Rhizoctonia oryzae; 40 ppm (marked *)", "value": "0* %"}, {"measurement": "Test C disease control rating", "setting": "Sclerotinia sclerotiorum; 40 ppm (marked *)", "value": "0* %"}, {"measurement": "Test K disease control rating", "setting": "[3]; 40 ppm (marked *)", "value": "98* %"}]}
{"compound": "CC[C@H](C)Cn1c(-c2ccc(F)cc2Cl)c(Br)nc(-n2cccn2)c1=O", "note": "[compound 281]", "values": [{"measurement": "Test I disease control rating", "setting": "fusarium graminearium; 40 ppm (marked *)", "value": "0* %"}, {"measurement": "Test F disease control rating", "setting": "Phytophthora infestans; 40 ppm (marked *)", "value": "0* %"}, {"measurement": "Test J disease control rating", "setting": "Septoria tritici", "value": "100* %"}, {"measurement": "Test L disease control rating", "setting": "[1]; 40 ppm (marked *)", "value": "100* %"}, {"measurement": "Test B disease control rating", "setting": "[2]; 40 ppm (marked *)", "value": "100* %"}, {"measurement": "Test A disease control rating", "setting": "Pythium aphanidermatum; 40 ppm (marked *)", "value": "0* %"}, {"measurement": "Test H disease control rating", "setting": "Septoria nodorum; 40 ppm (marked *)", "value": "100* %"}, {"measurement": "Test D disease control rating", "setting": "Plasmopara viticola; 40 ppm (marked *)", "value": "0* %"}, {"measurement": "Test E disease control rating", "setting": "Botrytis cinerea; 40 ppm (marked *)", "value": "100* %"}, {"measurement": "Test G disease control rating", "setting": "Rhizoctonia oryzae; 40 ppm (marked *)", "value": "47* %"}, {"measurement": "Test C disease control rating", "setting": "Sclerotinia sclerotiorum; 40 ppm (marked *)", "value": "0* %"}, {"measurement": "Test K disease control rating", "setting": "[3]; 40 ppm (marked *)", "value": "100* %"}]}
{"compound": "CC[C@H](C)Cn1c(-c2ccc(F)cc2Cl)c(Br)nc(-n2ccc(C)n2)c1=O", "note": "[compound 282]", "values": [{"measurement": "Test I disease control rating", "setting": "fusarium graminearium; 40 ppm (marked *)", "value": "0* %"}, {"measurement": "Test F disease control rating", "setting": "Phytophthora infestans; 40 ppm (marked *)", "value": "0* %"}, {"measurement": "Test J disease control rating", "setting": "Septoria tritici", "value": "100* %"}, {"measurement": "Test L disease control rating", "setting": "[1]; 40 ppm (marked *)", "value": "100* %"}, {"measurement": "Test B disease control rating", "setting": "[2]; 40 ppm (marked *)", "value": "100* %"}, {"measurement": "Test A disease control rating", "setting": "Pythium aphanidermatum; 40 ppm (marked *)", "value": "0* %"}, {"measurement": "Test H disease control rating", "setting": "Septoria nodorum; 40 ppm (marked *)", "value": "99* %"}, {"measurement": "Test D disease control rating", "setting": "Plasmopara viticola; 40 ppm (marked *)", "value": "0* %"}, {"measurement": "Test E disease control rating", "setting": "Botrytis cinerea; 40 ppm (marked *)", "value": "100* %"}, {"measurement": "Test G disease control rating", "setting": "Rhizoctonia oryzae; 40 ppm (marked *)", "value": "0* %"}, {"measurement": "Test C disease control rating", "setting": "Sclerotinia sclerotiorum; 40 ppm (marked *)", "value": "0* %"}, {"measurement": "Test K disease control rating", "setting": "[3]; 40 ppm (marked *)", "value": "100* %"}]}
{"compound": "CC[C@H](C)Cn1c(-c2ccc(F)cc2Cl)c(Br)nc(N2CCC=N2)c1=O", "note": "[compound 283]", "values": [{"measurement": "Test I disease control rating", "setting": "fusarium graminearium; 40 ppm (marked *)", "value": "0* %"}, {"measurement": "Test F disease control rating", "setting": "Phytophthora infestans; 40 ppm (marked *)", "value": "47* %"}, {"measurement": "Test J disease control rating", "setting": "Septoria tritici", "value": "100* %"}, {"measurement": "Test L disease control rating", "setting": "[1]; 40 ppm (marked *)", "value": "97* %"}, {"measurement": "Test B disease control rating", "setting": "[2]; 40 ppm (marked *)", "value": "94* %"}, {"measurement": "Test A disease control rating", "setting": "Pythium aphanidermatum; 40 ppm (marked *)", "value": "0* %"}, {"measurement": "Test H disease control rating", "setting": "Septoria nodorum; 40 ppm (marked *)", "value": "0* %"}, {"measurement": "Test D disease control rating", "setting": "Plasmopara viticola; 40 ppm (marked *)", "value": "0* %"}, {"measurement": "Test E disease control rating", "setting": "Botrytis cinerea; 40 ppm (marked *)", "value": "98* %"}, {"measurement": "Test G disease control rating", "setting": "Rhizoctonia oryzae; 40 ppm (marked *)", "value": "0* %"}, {"measurement": "Test C disease control rating", "setting": "Sclerotinia sclerotiorum; 40 ppm (marked *)", "value": "0* %"}, {"measurement": "Test K disease control rating", "setting": "[3]; 40 ppm (marked *)", "value": "96* %"}]}
{"compound": "CCCCn1c(-c2ccc(F)cc2Cl)c(Br)nc(-n2cccn2)c1=O", "note": "[compound 284]", "values": [{"measurement": "Test I disease control rating", "setting": "fusarium graminearium; 40 ppm (marked *)", "value": "0* %"}, {"measurement": "Test F disease control rating", "setting": "Phytophthora infestans; 40 ppm (marked *)", "value": "16* %"}, {"measurement": "Test J disease control rating", "setting": "Septoria tritici", "value": "100* %"}, {"measurement": "Test L disease control rating", "setting": "[1]; 40 ppm (marked *)", "value": "96* %"}, {"measurement": "Test B disease control rating", "setting": "[2]; 40 ppm (marked *)", "value": "0* %"}, {"measurement": "Test A disease control rating", "setting": "Pythium aphanidermatum; 40 ppm (marked *)", "value": "0* %"}, {"measurement": "Test H disease control rating", "setting": "Septoria nodorum; 40 ppm (marked *)", "value": "99* %"}, {"measurement": "Test D disease control rating", "setting": "Plasmopara viticola; 40 ppm (marked *)", "value": "0* %"}, {"measurement": "Test E disease control rating", "setting": "Botrytis cinerea; 40 ppm (marked *)", "value": "94* %"}, {"measurement": "Test G disease control rating", "setting": "Rhizoctonia oryzae; 40 ppm (marked *)", "value": "0* %"}, {"measurement": "Test C disease control rating", "setting": "Sclerotinia sclerotiorum; 40 ppm (marked *)", "value": "0* %"}, {"measurement": "Test K disease control rating", "setting": "[3]; 40 ppm (marked *)", "value": "95* %"}]}
{"compound": "CCCCn1c(-c2ccc(F)cc2Cl)c(Br)nc(-n2ccc(C)n2)c1=O", "note": "[compound 285]", "values": [{"measurement": "Test I disease control rating", "setting": "fusarium graminearium; 40 ppm (marked *)", "value": "0* %"}, {"measurement": "Test F disease control rating", "setting": "Phytophthora infestans; 40 ppm (marked *)", "value": "0* %"}, {"measurement": "Test J disease control rating", "setting": "Septoria tritici", "value": "100* %"}, {"measurement": "Test L disease control rating", "setting": "[1]; 40 ppm (marked *)", "value": "92* %"}, {"measurement": "Test B disease control rating", "setting": "[2]; 40 ppm (marked *)", "value": "0* %"}, {"measurement": "Test A disease control rating", "setting": "Pythium aphanidermatum; 40 ppm (marked *)", "value": "0* %"}, {"measurement": "Test H disease control rating", "setting": "Septoria nodorum; 40 ppm (marked *)", "value": "85* %"}, {"measurement": "Test D disease control rating", "setting": "Plasmopara viticola; 40 ppm (marked *)", "value": "0* %"}, {"measurement": "Test E disease control rating", "setting": "Botrytis cinerea; 40 ppm (marked *)", "value": "99* %"}, {"measurement": "Test G disease control rating", "setting": "Rhizoctonia oryzae; 40 ppm (marked *)", "value": "0* %"}, {"measurement": "Test C disease control rating", "setting": "Sclerotinia sclerotiorum; 40 ppm (marked *)", "value": "0* %"}, {"measurement": "Test K disease control rating", "setting": "[3]; 40 ppm (marked *)", "value": "89* %"}]}
{"compound": "O=c1c(-n2cccn2)nc(Cl)c(-c2ccccc2Cl)n1Cc1ccccc1", "note": "[compound 288]", "values": [{"measurement": "Test I disease control rating", "setting": "fusarium graminearium; 200 ppm", "value": 0, "unit": "%"}, {"measurement": "Test F disease control rating", "setting": "Phytophthora infestans; 200 ppm", "value": 0, "unit": "%"}, {"measurement": "Test J disease control rating", "setting": "Septoria tritici", "value": "100* %"}, {"measurement": "Test L disease control rating", "setting": "[1]; 200 ppm", "value": 91, "unit": "%"}, {"measurement": "Test B disease control rating", "setting": "[2]; 200 ppm", "value": 91, "unit": "%"}, {"measurement": "Test A disease control rating", "setting": "Pythium aphanidermatum; 200 ppm", "value": 0, "unit": "%"}, {"measurement": "Test H disease control rating", "setting": "Septoria nodorum; 200 ppm", "value": 100, "unit": "%"}, {"measurement": "Test D disease control rating", "setting": "Plasmopara viticola; 200 ppm", "value": 0, "unit": "%"}, {"measurement": "Test E disease control rating", "setting": "Botrytis cinerea; 200 ppm", "value": 100, "unit": "%"}, {"measurement": "Test G disease control rating", "setting": "Rhizoctonia oryzae; 200 ppm", "value": 0, "unit": "%"}, {"measurement": "Test C disease control rating", "setting": "Sclerotinia sclerotiorum; 200 ppm", "value": 0, "unit": "%"}, {"measurement": "Test K disease control rating", "setting": "[3]; 200 ppm", "value": 91, "unit": "%"}]}
